{"source": "paper PMC3059404", "about": "(Bioconjugate chemistry, 2011)", "test_system": "MDA-MB-435 tumor-bearing mice", "assay": "Small animal PET, organ uptake in orthotopic MDA-MB-435 tumor-bearing mice", "assay_type": "in vivo, athymic nude mice", "conditions": "co-injection with excess (0.5 μmol, 300 μg) c(RGDfk), 0.5 h"}
{"substance": "4-^18F-fluoro-3-trifluoromethylbenzoyl-E[c(RGDfk)2] [^18F-4]", "values": [{"measurement": "reduction of tumor uptake by blocking", "result": 82, "unit": "%"}]}
